According to patent publication US20230135127A1, “COMPOSITIONS AND METHODS FOR DISEASE TREATMENT AND PREVENTION BY PH MODIFIERS AND/OR CELL PROLIFERATION INHIBITORS” (priority 2021, published 2023):
Counter-ions that a name gives are not always drawn. Like-named read-outs stand apart in the source and are kept apart here.

Legend:
[1] = system: lesions of allergic contact dermatitis
[2] = system: C57BL/6 mice immunized with MOG35-55 (EAE); conditions: for mice with clinical scores lower than at initiation of treatment: by day 4, 5 HCl mice, 9 HOAc mice; for average EAE clinical score: day 4 after initiation of treatment, saline 3.46; for inflammation in the spinal cords (histology): day 4 post initiation of treatment; for mice that reached clinical score of 4 or above: i.p. 87.5 mM, 4 doses from score 1.5-2.5, saline 10 of the 11
Protocol: Induction of experimental autoimmune encephalomyelitis (EAE), the mouse model of multiple sclerosis, was carried out as previously described. (94). (Also see https://hookelabs.com/protocols/eaeAI_C57BL6.html). […] The final antigen emulsion comprised 1.5 mg/ml of MOG35-55, 189 μg/ml of M. tuberculosis H37Ra and 50% (by volume) IFA.
Female C57BL/6 mice of 9 weeks old were acclimated at CRDAL for 1 week. On day 0, mice were immunized by s.c. (subcutaneous) injection of the antigen emulsion at 4 evenly distributed sites in the dorsal area (25 μl/site). Two hours later, the mice were i.p. injected with Pertussis Toxin (List Biological laboratories, Campbell, Calif., USA) freshly prepared in ice-cold PBS (200 ng in 100 μl PBS/mouse). On day 1, the mice received a second i.p. injection of Pertussis Toxin at the same dosage. […] Mice with clinical score of 3 or above were provided wet chows and hydrogels.
In the EAE model of Example 2, two types of experiments, i.e., therapeutic and preventive experiments, were carried out. For the therapeutic experiments, on the day when the mice first reached the clinical scores of 1.5 to 2.5, the mice received i.p. treatments with saline, or saline plus 87.5 mM HCl or HOAc. The mice received additional 3 i.p. treatments every other day. […] The mice received i.p. treatments every other day for additional 2 doses. Clinical scores of all mice were recorded daily during and after the treatment periods, but experimentation was terminated on mice that reached clinical score of 5. As specified in some experiments, mice were sacrificed, and spinal cords were collected for histology analyses.
Lungs (after BALF collection), spinal cords and intestines were harvested and fixed in 10% neural formalin (Fisher Scientific, Kalamazoo, Mich., USA). […] Periodic acid-Schiff (PAS) staining was also performed with the lung tissue sections to determine mucus secretion in the lungs as a result of the inflammatory infiltration.

[3] = system: granulocytes and lymphocytes in the blood; conditions: RBC-depleted blood
[4] = system: C57BL/6 mice immunized with MOG35-55 (EAE)
[5] = system: lymphocytes, eosinophils, macrophages in BALF; neutrophils in blood
Protocol: (§1) Cells were washed 3 times with PBS then stained with Zombie viability dyes at room temperature for 20 minutes. At the end of incubation, 10% volume of FBS was added to absorb excess Zombie dyes. After washes, the cells were stained with conjugated antibodies against surface antigens on ice. As specified in some experiments, the cells were subsequently stained with fluorochrome-conjugated Avidin. For Annexin V staining, cells were washed twice with plain PBS and once with Annexin V binging buffer (10 mM HEPES, pH7.4, 140 mM NaCl, 2.5 mM CaCl2)) after surface antigen staining, and incubated with fluorochrome-conjugated Annexin V in Annexin V binding buffer for 15 min at room temperature. The cells were washed twice in Annexin V binding buffer and resuspended in Annexin V binding buffer. 7-AAD was added to the cells before analyzed by flow cytometry. For Ki-67 and Foxp3 staining, lymphocytes (after Zombie dye and surface antigen staining) or tumor cells (without surface antigen staining) were fixed and permeabilized using Foxp3 staining buffer kit, then stained with PE-conjugated anti-mouse or human Ki-67 antibodies. (Biolegend, San Diego, Calif., USA). Stained and unstained cells were analyzed on Accuri C6 Flow Cytomer (Accuri Cytometers, Inc., Ann Arbor, Mich.), FACS Canto (BD Bioscience, San Jose, Calif., USA) and Attune™ cytometer (Invitrogen, Carlsbad, Calif.). Data analyses were carried out using FlowJo X.

[6] = system: white bone marrow (WBM) cells; conditions: for Ki-67hi cells in bone marrow B lineage (CD19+) cells: i.p. x3, 1 day after third treatment, saline 5.59%; for Ki-67hi cells in non-B lineage cells of non-granulocyte WBM cells: i.p. x3, saline 11.5%
Protocol: (§2) For all examples, treatments of the mice were carried out either by i.t. (intra-tracheal) instillation or i.p. injection. For i.t. instillation, 60 μl of treatment solution of saline or saline plus 175 mM HCl or HOAc was instilled into the trachea of a mouse using a pipet tip. For i.p. injection, 200 μl of saline or saline plus 87.5 mM HCl, HOAc or NaOH was injected into the peritoneal cavity of a mouse using a 26 or 27G needle. At the time of the first treatment the body weights of the mice ranged about 19 to 30 g.
as §1
Like lymph nodes, bone marrow is one of the most common sites for tumor metastasis. (106). In addition, primary tumors or tumor-like lesions can also occur in the bone. (107). […] In this example, C57BL/6 mice were treated with i.p. injection of saline, or saline plus HCl or HOAc every other day for 3 times. Bone marrow cells were extracted from both tibias 1 day after the third treatment for the study of B lineage cells, and for the studies of other cell types 3 days after the third i.p. treatment with saline or saline plus HOAc, and alternatively, mice received one i.t. injection of saline or saline plus HOAc, bone marrow was extracted from tibias the next day.

[7] = system: white bone marrow (WBM) cells
Protocol: as §2, §1
To provide an example of this aspect of the present invention, C57BL/6 mice received i.p. treatments with saline or saline plus NaOH every other day for a total of 3 doses. Bone marrows were extracted from both tibias on day 1 or 3 after the final treatment.

[8] = about 5.25M in water, topical 4 times a day, day 1

CC(=O)O [HOAc, acetic acid]
rash in lesion 2 [1, 8]: almost completely disappeared
rashes in lesion 1 [1, 8]: partially disappeared
rashes in both lesions ([1]; by day 2 and day 3, treated day 0 and day 1): completely disappeared
mice with clinical scores lower than at initiation of treatment [2]: 6
average EAE clinical score [2]: 1.78
inflammation in the spinal cords (histology) [2]: no obvious inflammation
mice that reached clinical score of 4 or above [2]: 1 of the 9
mice whose clinical score remained the same ([2]; mouse, in vivo): 2
percentage of lymphocytes in blood ([3]; saline 22.9%): 13.6%
percentage of granulocytes in blood ([3]; saline 32.6%): 1.1%
rate of disease onset (mice with EAE) ([4]; day 2 after initiation of i.p. treatment, saline 50%): 30%
maximum rate of disease onset ([4]; reached 5 days after initiation, saline 80% on day 3): 60%
apoptotic (Annexin V+7-AAD+) macrophages in BALF ([5]; i.t. after 3rd challenge, saline 0.71%): 56.4%
apoptotic (Annexin V+7-AAD+) eosinophils in BALF ([5]; i.t. after 3rd challenge, saline 2.87%): 95.2%
apoptotic (Annexin V+7-AAD+) lymphocytes in BALF ([5]; i.t. after 3rd challenge, saline 3.15%): 85.3%
apoptotic neutrophils (Ly6G high) in blood ([5]; saline 7.61%): 38.4%
Ki-67hi cells in bone marrow T (CD3+) cells ([6]; i.p. treated, saline 4.21%): 2.46%
Ki-67hi HSC ([6]; i.p. treated, saline 11.1%): no Ki-67^hi HSC were detected
Ki-67hi cells in erythroid (TER-119+) lineage cells ([6]; i.p. treated, saline 72.3%): 46.9%
Ki-67hi cells in bone marrow B lineage (CD19+) cells [6]: 3.3%
Ki-67hi cells in non-B lineage cells of non-granulocyte WBM cells [6]: 5.11%
Ki-67hi cells in bone marrow T (CD3+) cells ([6]; i.t. treated, one injection, saline 4.88%): 2.44%
Ki-67hi HSC ([6]; i.t. treated, saline 5.56%): no Ki-67^hi HSC were detected
Ki-67hi cells in erythroid (TER-119+) lineage cells ([6]; i.t. treated, saline 67.3%): 33.3%

Cl [HCl, hydrochloric acid]
mice with clinical scores lower than at initiation of treatment [2]: all
average EAE clinical score [2]: 0.9
inflammation in the spinal cords (histology) [2]: no obvious inflammation
mice that reached clinical score of 4 or above [2]: none of the 5
Ki-67hi cells in bone marrow B lineage (CD19+) cells [6]: 2.83%
Ki-67hi cells in non-B lineage cells of non-granulocyte WBM cells [6]: 6.34%

[Na+].[OH-] [NaOH, sodium hydroxide]
tolerance of i.t. instillation (mice): poorly tolerant
Ki-67hi cells in B lineage cells ([7]; day 1, saline 4.85%): 24.8%
Ki-67hi cells in non-B lineage cells ([7]; day 1, saline 11.2%): 35.3%
Ki-67lo cells in B lineage cells ([7]; day 1, saline 34.7%): 61.6%
Ki-67hi MPP ([7]; day 3, saline 0%): 2.54%
percentage of T (CD3+) cells in WBM cells ([7]; day 3, saline 0.69%): 0.87%
Sca-1+ c-kit+ stem cells in Lin- WBM cells ([7]; day 3, saline 0.81%): 1.74%
Ki-67hi cells in T cells ([7]; day 3, saline 2.86%): 11.6%
Ki-67hi HSC ([7]; day 3, saline 6.67%): 15.6%
Ki-67neg TER-119+ cells ([7]; day 3, saline 7.11%): 6.72%
percentage of TER-119+ cells in lymphoid and myeloid negative WBM cells ([7]; day 3, saline 14.6%): 17.5%
percentage of CD11c+ TCR- cells in WBM cells ([7]; day 3, saline 18.4%): 64%
Ki-67lo cells in T cells ([7]; day 3, saline 20%): 28.7%
Ki-67lo MPP ([7]; day 3, saline 21.9%): 30.7%
Ki-67lo TER-119+ cells ([7]; day 3, saline 25.3%): 16%
Ki-67+ cells within the Ly6G+ population ([7]; day 3, saline 33.7%): 43.6%
Ki-67+ cells in CD11c+ TCR- cells ([7]; day 3, saline 39.5%): 70.1%
percentage of Ly6G+ cells in WBM cells ([7]; day 3, saline 42.4%): 57.7%
Ki-67hi TER-119+ cells ([7]; day 3, saline 67%): 76.2%
increase of average total number of WBM cells vs saline ([7]; i.p. x3, both tibias): 88%
percentage of CD19+ B lineage cells in non-granulocyte WBM cells ([7]; one day after three i.p. treatments, saline about 11%): 17%
average percentage of WBM cells in total bone marrow cells ([7]; saline less than 14%): over 29%
